Read-outs that look alike come from different tables or passages of the source.
Tests used:
[1] = system: barnyard grass Echinochloa crusgalli; assay: Petri dish culture, growth inhibition of root and stalk of barnyard grass; type: in vivo; conditions: 5 days; for inhibition at 1 µg/mL / inhibition at 10 µg/mL: Echinochloa crus-galli, 120 h
Protocol: (§1) The synthesized compounds were tested for the herbicidal activity on model plants including a monocotyledon (barnyard grass) and a dicotyledon (rape) by the reported Petri dish culture method. The percent inhibitory ratios against the growth of root and stalk of barnyard grass and rape at different dosage concentrations were calculated, and the compounds with appreciable inhibitory potencies are selected and shown in Table 1 and Table 2. Several features of the inhibitory activities can be derived. First, all the compounds have stronger inhibition against the growth of the dicotyledon rape than against the monocotyledon barnyard grass, showing appreciable selectivity.
(§2) The herbicidal activity was examined for the growth inhibition effect of the dicotyledon rape Brassica napus and the monocotyledon barnyard grass Echinochloa crusgalli, using the standard Petri dish test and the pre-emergence treatment procedure. […] Nine mL of the solution was added in a Petri dish of 9 cm diameter and two pieces of filter paper were placed on the dish bottom. Twenty seeds each of rape and barnyard grass were placed on the filter paper. The covered Petri dish was transferred into an artificial climate incubator (MGC-400H, Shantou Keyi Co., Ltd., China), where the conditions were controlled at temperature 23 ± 1 °C, humidity 60 ± 5%, light intensity 10 Klux, and photoperiod 12 h/day. The incubation was continued for 5 days, then the lengths of 10 roots and 10 stems for each type of plant were measured and the mean values were calculated. The percent inhibitory ratios were calculated relative to control plants exposing to distilled water instead of the compound solution.

[2] = system: rape Brassica napus; assay: Petri dish culture, growth inhibition of root and stalk of rape; type: in vivo; conditions: 5 days; for inhibition at 1 µg/mL / inhibition at 10 µg/mL: Brassica napus, 120 h
Protocol: as §1, §2

[3] = system: rape Brassica napus; assay: Concentration-dependent root elongation inhibition of rape (IC50); type: in vivo; conditions: for IC50: rape root elongation, Table 3, read-out: IC50 for the root elongation inhibition of rape
Protocol: Several representative compounds selected from the 2-phenoxy-4H-3,1-benzoxazin-4-one and 2-phenoxy-3H-quinazolin-4-one groups were tested their concentration dependant activities and the half maximal inhibitory concentrations (IC50 values) are shown in Table 3. Obviously, the 2-phenoxy-4H-3,1-benzoxazin-4-ones 3m and 3o have IC50 values near to that of the commercial herbicidal 2,4-D. More importantly, these molecules consist of 2-phenoxymethyl group with halo substituents both at the 2- and 4- positions of the benzene ring, a similar pattern to the commercial hormone herbicides 2,4-D, clomeprop, and 2,4-DB, as well as the ACCase herbicide diclofop-methyl. […] Moreover, if no halo group exists on the benzene ring, the activity will decrease dramatically. On the other hand, the substructure 4H-3,1-benzoxazin-4-one in this work and the carboxylic group in the commercial phenoxyethanoic and phenoxypropionic acid herbicides play also a crucial role in the contribution to the activities of the compounds, meaning they are active substructures.
The herbicidal activity was examined for the growth inhibition effect of the dicotyledon rape Brassica napus and the monocotyledon barnyard grass Echinochloa crusgalli, using the standard Petri dish test and the pre-emergence treatment procedure. Briefly, the compounds to be tested were dissolved in DMF and emulsified with Tween 80, and the solutions were diluted with water to the concentrations of […], respectively. Nine mL of the solution was added in a Petri dish of 9 cm diameter and two pieces of filter paper were placed on the dish bottom. Twenty seeds each of rape and barnyard grass were placed on the filter paper. The covered Petri dish was transferred into an artificial climate incubator (MGC-400H, Shantou Keyi Co., Ltd., China), where the conditions were controlled at temperature 23 ± 1 °C, humidity 60 ± 5%, light intensity 10 Klux, and photoperiod 12 h/day. The incubation was continued for 5 days, then the lengths of 10 roots and 10 stems for each type of plant were measured and the mean values were calculated. The percent inhibitory ratios were calculated relative to control plants exposing to distilled water instead of the compound solution.

[4] = 1 mg/L, root growth, read-out: Relative inhibition, root
[5] = 1 mg/L, stalk growth, read-out: Relative inhibition, stalk
[6] = 10 mg/L, root growth, read-out: Relative inhibition, root
[7] = 10 mg/L, stalk growth, read-out: Relative inhibition, stalk

Compound	Relative inhibition, root ([1]; 1 mg/L, root growth) [%]	Relative inhibition, stalk ([1]; 1 mg/L, stalk growth) [%]	Relative inhibition, root ([1]; 10 mg/L, root growth) [%]	Relative inhibition, stalk ([1]; 10 mg/L, stalk growth) [%]	Relative inhibition, root ([2]; 1 mg/L, root growth) [%]	Relative inhibition, stalk ([2]; 1 mg/L, stalk growth) [%]	Relative inhibition, root ([2]; 10 mg/L, root growth) [%]	Relative inhibition, stalk ([2]; 10 mg/L, stalk growth) [%]	IC50 [3] [µM]	herbicidal activity (control experiment) ([3]; compound without the 4H-3,1-benzoxazin-4-one substructure, plant not stated)	inhibition at 1 µg/mL [1, 4] [%]	inhibition at 1 µg/mL [1, 5] [%]	inhibition at 10 µg/mL [1, 6] [%]	inhibition at 10 µg/mL [1, 7] [%]	inhibition at 1 µg/mL [2, 4] [%]	inhibition at 1 µg/mL [2, 5] [%]	inhibition at 10 µg/mL [2, 6] [%]	inhibition at 10 µg/mL [2, 7] [%]	IC50 ([3]; Brassica napus) [µM]	melting point [°C]
3-Amino-7-chloro-2-((2,4-dichlorophenoxy)methyl)-3H-quinazolin-4-one [4i]	24.3	−7.2	68.5	38.1	93.6	92.3	98.2	95.7	27.2											
CCOc1ccc(Cl)cc1Cl [2,4-dichlorophenyl ethyl ether, reference compound]										loses nearly all of its herbicidal activity										
O=c1oc(COc2ccc(Cl)cc2)nc2ccccc12 [3g, 2-((4-Chlorophenoxy)methyl)-4H-3,1-benzoxazin-4-one]											53.7	-25.6	79.5	-1.8	98	56.8	100	68	30.4	147.5 to 149.2
O=c1oc(COc2ccc(Cl)cc2)nc2cccc(Cl)c12 [3h, 5-Chloro-2-((4-chlorophenoxy)methyl)-4H-3,1-benzoxazin-4-one]											59.8	14.7	88.7	41.9	96.3	62	100	91.7	138	144.3 to 145.7
O=c1oc(COc2ccc(Cl)cc2)nc2ccc(Cl)cc12 [3i, 6-Chloro-2-((4-chlorophenoxy)methyl)-4H-3,1-benzoxazin-4-one]											55.3	-7.3	87.8	13.2	91.4	40.2	100	82.1	22.3	153.2 to 154.6
COc1cc2nc(COc3ccc(Cl)cc3)oc(=O)c2cc1OC [3l, 2-((4-Chlorophenoxy)methyl)-6,7-dimethoxy-4H-3,1-benzoxazin-4-one]											65.5	12.8	78.7	22	96.3	74.5	100	83.4	80.1	118.5 to 119.3
COc1cc2nc(COc3ccc(Cl)cc3)n(N)c(=O)c2cc1OC [4e, 3-Amino-2-((4-chlorophenoxy)methyl)-6,7-dimethoxy-3H-quinazolin-4-one]											13.8	2.9	23.3	11.9	21.9	1.5	30.8	6.4		202.8 to 204.1
Nn1c(COc2ccc(Cl)cc2Cl)nc2cccc(Cl)c2c1=O [4g, 3-Amino-5-chloro-2-((2,4-dichlorophenoxy)methyl)-3H-quinazolin-4-one]											11.8	-5.9	25.8	-1.8	5.7	10	17.5	44.9		201.5 to 202
Nn1c(COc2ccc(Cl)cc2Cl)nc2ccc(Cl)cc2c1=O [4h, 3-Amino-6-chloro-2-((2,4-dichlorophenoxy)methyl)-3H-quinazolin-4-one]											20	-42	37.5	-12.7	7.5	10.7	22	19.9		223.6 to 224.9
Cn1c(COc2ccc(Cl)cc2)nc2ccc(Cl)cc2c1=O [4l, 6-Chloro-2-((4-chlorophenoxy)methyl)-3-methyl-3H-quinazolin-4-one]											24.7	8.9	33.7	11.9	28.5	1.5	42.2	10.8		179.9 to 181.2
Cn1c(COc2ccc(Cl)cc2)nc2cc(Cl)ccc2c1=O [4m, 7-Chloro-2-((4-chlorophenoxy)methyl)-3-methyl-3H-quinazolin-4-one]											14.8	7.5	29.2	14.9	26.2	1.5	27.9	-0.5		202.4 to 203.9
Cc1ccc2nc(COc3ccc(Cl)cc3)n(C)c(=O)c2c1 [4n, 2-((4-Chlorophenoxy)methyl)-3,6-dimethyl-3H-quinazolin-4-one]											26.7	14.9	43.5	14.9	39.4	7.8	45	16.6		196.4 to 197.6
COc1cc2nc(COc3ccc(Cl)cc3)n(C)c(=O)c2cc1OC [4o, 2-((4-Chlorophenoxy)methyl)-6,7-dimethoxy-3-methyl-3H-quinazolin-4-one]											13.3	8.9	17.3	5.9	25.1	1.9	34.8	-6.8		201.8 to 202.7
Cn1c(COc2ccc(Cl)cc2Cl)nc2ccccc2c1=O [4p, 2-((2,4-Dichlorophenoxy)methyl)-3-methy-3H-quinazolin-4-one]											2.5	-10.9	29.4	-47.3	4.5	27.1	21.2	29.2		172.1 to 173.4
Cn1c(COc2ccc(Cl)cc2Cl)nc2ccc(Cl)cc2c1=O [4q, 6-Chloro-2-((2,4-dichlorophenoxy)methyl)-3-methyl-3H-quinazolin-4-one]											24.3	5.4	31.9	-3.6	8.1	14.4	19.3	38.9		240.1 to 241.8
COc1cc2nc(COc3ccc(Cl)cc3Cl)n(C)c(=O)c2cc1OC [4s, 2-((2,4-Dichlorophenoxy)methyl)-6,7-dimethoxy-3-methyl-3H-quinazolin-4-one]											30	-20.3	52.2	-54.5	7.1	8.1	20.7	20.3		243.9 to 245.2
